Experimental data published in PubChem BioAssay (NCI).
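At the GI50, growth is halved. At the TGI there is no net growth.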

Assays:
Test in all cases: inhibition of tumour cell growth, NCI panel, 384-well format
[1] = tested on: 786-0 renal
[2] = tested on: A498 renal
[3] = tested on: A549 NSCLC
[4] = tested on: ACHN renal
[5] = tested on: BT-549 breast
[6] = tested on: CAKI-1 renal
[7] = tested on: COLO 205 colon
[8] = tested on: DU-145 prostate
[9] = tested on: EKVX NSCLC
[10] = tested on: HCT-116 colon
[11] = tested on: HCT-15 colon
[12] = tested on: HL-60(TB) leukemia
[13] = tested on: HOP-62 NSCLC
[14] = tested on: HOP-92 NSCLC
[15] = tested on: HT29 colon
[16] = tested on: IGROV1 ovarian
[17] = tested on: K-562 leukemia
[18] = tested on: KM12 colon
[19] = tested on: M14 melanoma
[20] = tested on: MALME-3M melanoma
[21] = tested on: MCF7 breast
[22] = tested on: MDA-MB-231 breast
[23] = tested on: MDA-MB-435 melanoma
[24] = tested on: MDA-MB-468 breast
[25] = tested on: MOLT-4 leukemia
[26] = tested on: NCI-H226 lung
[27] = tested on: NCI-H23 lung
[28] = tested on: NCI-H322M lung
[29] = tested on: NCI-H460 NSCLC
[30] = tested on: NCI-H522 lung
[31] = tested on: OVCAR-3 ovarian
[32] = tested on: OVCAR-4 ovarian
[33] = tested on: OVCAR-5 ovarian
[34] = tested on: OVCAR-8 ovarian
[35] = tested on: PC-3 prostate
[36] = tested on: RXF 393 renal
[37] = tested on: SF-268 CNS
[38] = tested on: SF-295 CNS
[39] = tested on: SF-539 CNS
[40] = tested on: SK-MEL-2 melanoma
[41] = tested on: SK-MEL-28 melanoma
[42] = tested on: SK-MEL-5 melanoma
[43] = tested on: SK-OV-3 ovarian
[44] = tested on: SN12C renal
[45] = tested on: SNB-19 CNS
[46] = tested on: SNB-75 CNS
[47] = tested on: SR leukemia
[48] = tested on: SW-620 colon
[49] = tested on: T-47D breast
[50] = tested on: TK-10 renal
[51] = tested on: U251 glioblastoma
[52] = tested on: UACC-257 melanoma
[53] = tested on: UACC-62 melanoma
[54] = tested on: UO-31 renal

Compound: CC[C@@]1(O)C(=O)OCc2c1cc1n(c2=O)Cc2c-1nc1cc(F)c(C)c3c1c2[C@@H](N)CC3
- GI50 [1]: < 10 nM
- TGI [1]: < 10 nM
- GI50 [2]: < 10 nM
- TGI [2]: 14.2 nM
- GI50 [3]: < 10 nM
- TGI [3]: 43.1 nM
- GI50 [4]: < 10 nM
- TGI [4]: < 10 nM
- GI50 [5]: < 10 nM
- TGI [5]: < 10 nM
- GI50 [6]: < 10 nM
- TGI [6]: 11.7 nM
- GI50 [7]: < 10 nM
- TGI [7]: 159 nM
- GI50 [8]: < 10 nM
- TGI [8]: < 10 nM
- GI50 [9]: < 10 nM
- TGI [9]: 243 nM
- GI50 [10]: < 10 nM
- TGI [10]: 22.1 nM
- GI50 [11]: < 10 nM
- TGI [11]: 120 nM
- GI50 [12]: < 10 nM
- TGI [12]: < 10 nM
- GI50 [13]: < 10 nM
- TGI [13]: < 10 nM
- GI50 [14]: < 10 nM
- TGI [14]: 11 nM
- GI50 [15]: < 10 nM
- TGI [15]: 10.7 nM
- GI50 [16]: < 10 nM
- TGI [16]: 103 nM
- GI50 [17]: < 10 nM
- TGI [17]: 132 nM
- GI50 [18]: < 10 nM
- TGI [18]: < 10 nM
- GI50 [19]: < 10 nM
- TGI [19]: 18.7 nM
- GI50 [20]: < 10 nM
- TGI [20]: 84 nM
- GI50 [21]: < 10 nM
- TGI [21]: < 10 nM
- GI50 [22]: 23.3 nM
- TGI [22]: 617 nM
- GI50 [23]: < 10 nM
- TGI [23]: 177 nM
- GI50 [24]: < 10 nM
- TGI [24]: < 10 nM
- GI50 [25]: < 10 nM
- TGI [25]: < 10 nM
- GI50 [26]: < 10 nM
- TGI [26]: < 10 nM
- GI50 [27]: < 10 nM
- TGI [27]: < 10 nM
- GI50 [28]: < 10 nM
- TGI [28]: 17.4 nM
- GI50 [29]: < 10 nM
- TGI [29]: 16.7 nM
- GI50 [30]: < 10 nM
- TGI [30]: < 10 nM
- GI50 [31]: < 10 nM
- TGI [31]: 31.7 nM
- GI50 [32]: 19 nM
- TGI [32]: 308 nM
- GI50 [33]: < 10 nM
- TGI [33]: 43 nM
- GI50 [34]: < 10 nM
- TGI [34]: 39.8 nM
- GI50 [35]: < 10 nM
- TGI [35]: 1050 nM
- GI50 [36]: < 10 nM
- TGI [36]: < 10 nM
- GI50 [37]: < 10 nM
- TGI [37]: < 10 nM
- GI50 [38]: < 10 nM
- TGI [38]: < 10 nM
- GI50 [39]: < 10 nM
- TGI [39]: < 10 nM
- GI50 [40]: < 10 nM
- TGI [40]: 29.2 nM
- GI50 [41]: < 10 nM
- TGI [41]: 133 nM
- GI50 [42]: < 10 nM
- TGI [42]: < 10 nM
- GI50 [43]: < 10 nM
- TGI [43]: < 10 nM
- GI50 [44]: < 10 nM
- TGI [44]: < 10 nM
- GI50 [45]: < 10 nM
- TGI [45]: 25.9 nM
- GI50 [46]: < 10 nM
- TGI [46]: < 10 nM
- GI50 [47]: < 10 nM
- TGI [47]: < 10 nM
- GI50 [48]: < 10 nM
- TGI [48]: 108 nM
- GI50 [49]: < 10 nM
- TGI [49]: < 10 nM
- GI50 [50]: < 10 nM
- TGI [50]: 608 nM
- GI50 [51]: < 10 nM
- TGI [51]: < 10 nM
- GI50 [52]: < 10 nM
- TGI [52]: < 10 nM
- GI50 [53]: < 10 nM
- TGI [53]: < 10 nM
- GI50 [54]: < 10 nM
- TGI [54]: < 10 nM
